Results from US20260035360A1, “INHIBITORS OF MYC AND USES THEREOF” (Northwestern University, priority 2022, published 2026).

How the values were obtained:
[1] = Plasma pharmacokinetics after 1 mg/kg PO in female mice; conditions: mouse; for half-life: female mice
Experimental: (§3) PK: Plasma levels of compounds were determined after 1 mg/kg dosing PO in female BALB/C mice.
(§4) Plasma levels of compounds were determined after 1 mg/kg dosing PO in female BALB/C mice.

ATF4 = ATF4 protein level in PC3 cells by western blot, 24 hr; assay type: cell-based; conditions: Homo sapiens, PC-3, PC3, 24 h, Actin control, read-out: Relative ATF4 protein at 10 μM (fold change, PC3 24 h)
Outline: (§1)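 For viability IC50, PC3 and PC12 cells were exposed to a compound concentration range for 72 hrs and read by CellTitreGlo. MYC and ATF4 were measured in PC3 cells after 24 hr treatment by western blot, normalised to Actin and quantified by imager.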

[2] = female, mouse, in vivo, po, 1 mg/kg
Experimental: as §3, §4

MYC = target: T1, MYC (Homo sapiens, UniProt P01106); test: MYC protein level in PC3 cells by western blot, 24 hr; assay type: cell-based; conditions: PC-3, 24 h, PC3, 24 h, Actin control, read-out: Relative MYC protein at 10 μM (%, PC3 24 h)
T1 construct: endogenous in cells; host or cells: PC3 cells
Outline: as §1

PC3 cells = test: PC3 cell viability, CellTitreGlo Assay, 72 hrs; assay type: cell-based; conditions: Homo sapiens, PC-3
Outline: as §1

MycCaP;Pten-KO cells = test: Tumor growth inhibition, MycCaP;Pten-KO subcutaneous allograft in male FVB/N mice; assay type: in vivo; conditions: after 14 d; for TGI: QD, Table 7; for Efficacy MycCaP;Pten-ko (TGI @ 100 mg/kg/d po): male FVB/N mice, Table 3
Experimental: (§2) Table 3. Biological data of selected compounds. […] Tumor growth inhibition (TGI) was determined after 14 d.
Table 7. Tumor Growth Inhibition data. […] Tumor growth inhibition (TOD was determined after 14 d.

PC12 cells = test: PC12 cell viability, CellTitreGlo Assay, 72 hrs; assay type: cell-based; conditions: Rattus norvegicus, PC-12
Experimental: Table 2. Biological data of selected compounds. For IC50 determination. PC3 and PC12 cells were treated with increasing concentrations of the indicated compounds for 72 hrs and cell viability assessed using CellTitreGlo Assay (Promega). For MYC and ATF4 protein level determination. PC3 cells were treated with the indicated compounds for 24 hr sand cell lysates processed for western blot with MYC and ATF4 antibodies using Actin as a control. Quantification analyses were performed by Biorad ChemiDoc Imager and Bio-Rad Image Lab software.

[3] = Toxicity (weight loss) in tumor-bearing mice; assay type: in vivo; conditions: weight loss class
Experimental: as §2

T1 sequence (P01106 whole entry): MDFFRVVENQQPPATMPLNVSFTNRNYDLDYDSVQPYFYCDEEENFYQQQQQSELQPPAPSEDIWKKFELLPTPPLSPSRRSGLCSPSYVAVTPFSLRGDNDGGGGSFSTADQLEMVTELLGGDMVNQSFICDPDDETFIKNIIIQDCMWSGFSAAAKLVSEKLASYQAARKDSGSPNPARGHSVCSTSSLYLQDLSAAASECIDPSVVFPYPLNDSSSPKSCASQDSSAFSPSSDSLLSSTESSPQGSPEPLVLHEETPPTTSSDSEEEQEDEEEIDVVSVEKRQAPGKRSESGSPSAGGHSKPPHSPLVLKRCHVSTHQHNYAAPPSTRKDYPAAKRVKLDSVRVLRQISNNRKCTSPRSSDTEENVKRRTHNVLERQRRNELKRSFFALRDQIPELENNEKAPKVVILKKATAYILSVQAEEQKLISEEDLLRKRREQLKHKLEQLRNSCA

## Cn1nc(C(F)(F)F)cc1-c1cc(Cl)c(COc2ccc(Cl)cc2)c(-c2ccc(Cl)c(C(F)(F)F)c2)c1O [NUCC-0226605]
[1]
  AUC(0-t): 4830 ng·h/mL
  Cmax: 274 ng/mL
  Tmax: 8 h
ATF4
  fold induction at 10 µM: 10.3 ± 1.5
[2]
  AUMC0-t: 49995 h*h*ng/mL
MYC
  remaining activity at 10 µM: 34.7 ± 3.2%
PC3 cells
  IC50: 1000 nM
MycCaP;Pten-KO cells; 10 mg/kg p.o.
  TGI: 56.29%
MycCaP;Pten-KO cells; 30 mg/kg p.o.
  TGI: 65.67%
MycCaP;Pten-KO cells; 100 mg/kg p.o.
  TGI: 92.51%
MycCaP;Pten-KO cells
  Efficacy MycCaP;Pten-ko (TGI @ 100 mg/kg/d po): 90
PC12 cells
  IC50: 10.5 µM
[3]
  Toxicity @ 100 mg/kg/d: ++ (++, 15-20% weight loss)

## Cn1nc(C(F)(F)F)cc1-c1cc(Cl)c(Oc2ccc(Cl)cc2)c(-c2ccc(Cl)c(C(F)(F)F)c2)c1O [NUCC-0227245]
ATF4
  fold induction at 10 µM: 20.3 ± 3.7
MYC
  remaining activity at 10 µM: 37.1 ± 1%
PC3 cells
  IC50: 490 nM
PC12 cells
  IC50: 3.81 µM
[3]
  Toxicity @ 100 mg/kg/d: +++ (+++, >20% weight loss or death)

## Cn1nc(C(F)(F)F)cc1-c1ccc(OCc2ccc(Cl)cc2)c(-c2ccc(Cl)c(C(F)(F)F)c2)c1O [MYCi975, reference compound]
PC3 cells
  IC50: 2900 ± 500 nM
MycCaP;Pten-KO cells
  Efficacy MycCaP;Pten-ko (TGI @ 100 mg/kg/d po): 50
PC12 cells
  IC50: > 16 µM
[3]
  Toxicity @ 100 mg/kg/d: − (−, 0-5% weight loss)

## Cn1nc(C(F)(F)F)c(Cl)c1-c1cc(Cl)c(COc2ccc(Cl)cc2)c(-c2ccc(Cl)c(C(F)(F)F)c2)c1O [NUCC-0227037]
[1]
  AUC(0-inf): 4200 ng·h/mL
  AUC(0-t): 4000 ng·h/mL
  Cmax: 202 ng/mL
  MRT inf: 15.8 h
  Tmax: 4 h
[1]; T1/2, Table 6, PO 1 mg/kg
  half-life: 642 min
[1]; T1/2—range*, Table 6, PO 1 mg/kg
  half-life: 480 to 2880 min
ATF4
  fold induction at 10 µM: 15.1
[2]
  AUMC0-t: 53530 h*h*ng/mL
  AUMC0-∞: 66373 h*h*ng/mL
MYC
  remaining activity at 10 µM: 33.6%
PC3 cells
  IC50: 960 nM
MycCaP;Pten-KO cells; 10 mg/kg p.o.
  TGI: 43.99%
MycCaP;Pten-KO cells; 30 mg/kg p.o.
  TGI: 57.24%
MycCaP;Pten-KO cells; 100 mg/kg p.o.
  TGI: 81.48%
MycCaP;Pten-KO cells
  Efficacy MycCaP;Pten-ko (TGI @ 100 mg/kg/d po): 80
PC12 cells
  IC50: 11.1 µM

## Cn1nc(C(F)(F)F)cc1-c1cc(C(F)(F)F)c(COc2ccc(Cl)cc2)c(-c2ccc(Cl)c(C(F)(F)F)c2)c1O [NUCC-0227244]
ATF4
  fold induction at 10 µM: 22.8
MYC
  remaining activity at 10 µM: 39.5%
PC3 cells
  IC50: 570 nM
PC12 cells
  IC50: 4.55 µM
[3]
  Toxicity @ 100 mg/kg/d: ++ (++, 15-20% weight loss)

## Cn1nc(C(F)(F)F)c(Cl)c1-c1ccc(COc2ccc(Cl)cc2)c(-c2ccc(Cl)c(C(F)(F)F)c2)c1O [NUCC-0226606]
[1]
  AUC(0-t): 15200 ng·h/mL
  Cmax: 841 ng/mL
  Tmax: 12 h
ATF4
  fold induction at 10 µM: 9.7 ± 1.2
[2]
  AUMC0-t: 177148 h*h*ng/mL
MYC
  remaining activity at 10 µM: 38.2 ± 3.9%
PC3 cells
  IC50: 2230 nM
MycCaP;Pten-KO cells; 10 mg/kg p.o.
  TGI: 43.1%
MycCaP;Pten-KO cells; 30 mg/kg p.o.
  TGI: 56.4%
MycCaP;Pten-KO cells; 100 mg/kg p.o.
  TGI: 74.6%
MycCaP;Pten-KO cells
  Efficacy MycCaP;Pten-ko (TGI @ 100 mg/kg/d po): 75
PC12 cells
  IC50: 16.6 µM
